The EC50 is the midpoint of the concentration-response curve.

SMILES strings stand for the structures.

We go through 24 compounds from patent US9926304B2, “1-(arylmethyl)quinazoline-2,4(1H,3H)-diones as PARP inhibitors and the use thereof” (Impact Therapeutics, Inc., priority 2011, dated 2018).

Assay [1] concerns Human breast cancer cell line T47D. Kind of assay: Cell based caspase-3 activity assay: potentiation of MMS induced apoptosis. Conditions: Homo sapiens, T47D, 24 h, T47D cells, 11.1 μg/ml MMS, 24 hours, intracellular caspase-3 activity; read-out: EC50 (nM), potentiation of the apoptosis inducing activity of MMS. The text has this:
Determination of the synergistic potentiation effect of 1-(3-(4-(pyrimidin-2-yl)piperazine-1-carbonyl)benzyl)quinazoline-2,4(1H,3H)-dione and analogs on MMS induced apoptosis using a cell based caspase-3 activity assay
Human breast cancer cell line T47D was used to determine the potentiation effect of PARP inhibitors on the apoptosis inducing activity of DNA damaging anticancer drugs such as MMS. Intracellular caspase-3 activity was used to measure cell apoptosis. The dose response effect of MMS to induce intracellular caspase activity was carefully titrated and the concentration that only induces a minimal level of caspase activity was used to test the potentiation effect of PARP inhibitors. Briefly, T47D cells were grown in DMEM/F12 cell culture medium (Hyclone) supplemented with 0.2 U/ml insulin (Genview) and 10% FBS (Hyclone). A day before experiment, 20000 of T47D cells were seeded to each well of a 96-well cell culture plate and maintained at 37° C. and 5% CO2 in a cell culture incubator overnight. On the day of experiment, cell culture medium was removed. One hundred and eighty μl of fresh medium containing 11.1 μg/ml MMS was added to each well and followed by 20 μl medium containing 10 folds of the concentrations of experimental drugs or reference compounds (ADZ2281 and ABT-888). The serial dilutions of the compounds to be tested and the reference compounds were made in a 1:3 and 1:10 fashion in DMSO. The 10-fold compound solutions were made by mixing 10 μl DMSO serial dilution solutions with 90 μl fresh growth medium. Twenty four hours later, the cells in the 96-well plates were centrifuged at 1000 g for 5 min and the supernatants were removed. Fifty μl lysis buffer (10 mM Tris, pH7.5, 0.1M NaCl, 1 mM EDTA, 0.01% Triton X-100) was added to each well and the plates were shaked horizontally for 30 min at 4° C. After centrifugation at 1000 g at 4° C. for 10 min, 20 μl of supernatant was transferred from each well to a corresponding well in a 384-well black plate. Twenty μl of buffer (20 mM PIPES, pH7.4, 4 mM EDTA and 0.2% CHAPS) containing 20 μM fluorescent caspase-3 substrate ((Ac-DEVD)2-R110, AnaSpec Cat #60304-5) was added to each well afterwards. The plates were shaked to uniformly mix the wells and incubated at 37° C. for 3 h. The fluorescence intensity was measured using the following wavelength: ex: 496 nm, em: 520 nm using a fluorescence plate reader (Varioskan Flash, Thermo Fisher Scientific). The caspase-3 activity induced by the compounds was expressed as a relative fluorescence unit (RFU). The obtained fluorescence readings were analyzed using a commercial graphic software (GraphPad Prism 5) and plotted against the Log value of the compound concentrations. The EC50 values were obtained by fitting the data points with the equation of Y (fluorescence reading)=minimal fluorescence reading+(maximal fluorescence reading−minimal fluorescence reading)/(1+10^(Log EC50−Log C)), where C is the concentration of the testing compound.
The synergistic potentiation effect of compounds on MMS induced apoptosis in T47D cells is expressed as EC50 values and listed in Table 2.

The test system of assay [2] is SW620 human colorectal cancer cells. The assay is described as follows: MTT based cell viability assay: potentiation of the growth inhibiting activity of MMS. To be noted: Homo sapiens, SW-620, 120 h, read-out: IC50 (nM), potentiation of the growth inhibiting activity of MMS, SW620 cells, 1.7 μg/ml MMS, 5 days (120 hours), MTT.

Consider `O=C(c1cccc(Cn2c(=O)[nH]c(=O)c3cc([N+](=O)[O-])ccc32)c1)N1CCN(C(=O)C2CCCC2)CC1` [Example 90, 1-(3-(4-(Cyclopentylcarbonyl)piperazine-1-carbonyl)benzyl)-6-nitroquinazoline-2,4(1H,3H)-dione], for which the EC50 in assay [1] came out at 4170 nM. Moreover, in assay [2], the IC50 is above 10000 nM.
For the compound `O=C(O)c1cccc(Cn2c(=O)[nH]c(=O)c3ccccc32)c1` [Example 2, 1-(3-Carboxybenzyl)quinazoline-2,4(1H,3H)-dione], the EC50 in assay [1] was above 10000 nM. Moreover, the IC50 in assay [2] was above 10000 nM.
Consider `COc1cccc2c(=O)[nH]c(=O)n(Cc3cccc(C(=O)N4CCN(c5ncccn5)CC4)c3)c12` [Example 227, 8-Methoxy-1-(3-(4-(pyrimidin-2-yl)piperazine-1-carbonyl)benzyl)quinazoline-2,4(1H,3H)-dione], for which the EC50 in assay [1] is 40 nM. Besides, the IC50 in assay [2] turned out to be 13 nM.
As for `O=C(c1cccc(Cn2c(=O)[nH]c(=O)c3cc(Cl)ccc32)c1)N1CCN(C(=O)C2CCC2)CC1` [Example 116, 6-Chloro-1-(3-(4-(cyclobutylcarbonyl)piperazine-1-carbonyl)benzyl)quinazoline-2,4(1H,3H)-dione], the EC50 in assay [1] was found to be 13 nM. Moreover, in assay [2], the IC50 is 48 nM.
The corresponding values for `O=C(c1ccc(F)c(Cn2c(=O)[nH]c(=O)c3c(Cl)cccc32)c1)N1CCN(c2ccccn2)CC1` [Example 173, 5-Chloro-1-(6-fluoro-3-(4-(pyridin-2-yl)piperazine-1-carbonyl)benzyl)quinazoline-2,4(1H,3H)-dione] are 122 nM and 228 nM.
In the case of `O=C(c1cccc(Cn2c(=O)[nH]c(=O)c3c(F)cccc32)c1)N1CCN(C(=O)c2cccs2)CC1` [Example 131, 5-Fluoro-1-(3-(4-(thiophene-2-carbonyl)piperazine-1-carbonyl)benzyl)quinazoline-2,4(1H,3H)-dione], the EC50 in assay [1] stood at 20 nM. For the same compound, the IC50 in assay [2] amounted to 17 nM.
For `O=C(c1ccc(Cn2c(=O)[nH]c(=O)c3ccccc32)o1)N1CCN(c2nsc3ccccc23)CC1` [Example 68, 1-((2-(4-(Benzo[d]isothiazol-3-yl)piperazine-1-carbonyl)furan-5-yl)methyl)quinazoline-2,4(1H,3H)-dione], the EC50 in assay [1] is 635 nM. Further, the IC50 in assay [2] turned out to be 673 nM.
On to `O=C(c1cccc(Cn2c(=O)[nH]c(=O)c3ccccc32)c1)N1CCN(CC2CCCCC2)CC1` [Example 73, 1-(3-(4-(Cyclohexylmethyl)piperazine-1-carbonyl)benzyl)quinazoline-2,4(1H,3H)-dione], for which, in assay [1], the EC50 was 811 nM. Besides, the IC50 in assay [2] was determined as 3380 nM.
With `O=C(c1ccccc1)N1CCN(C(=O)c2cc(Cn3c(=O)[nH]c(=O)c4cc(Cl)ccc43)ccc2F)CC1` [Example 164, 6-Chloro-1-(3-(4-benzoylpiperazine-1-carbonyl)-4-fluorobenzyl)quinazoline-2,4(1H,3H)-dione], the EC50 in assay [1] was 2.1 nM. Also, the IC50 in assay [2] amounted to 6.2 nM.
For the compound `O=C(c1cccc(Cn2c(=O)[nH]c(=O)c3ccc(F)cc32)c1)N1CCN(c2ncccn2)CC1` [Example 78, 7-Fluoro-1-(3-(4-(pyrimidin-2-yl)piperazine-1-carbonyl)benzyl)quinazoline-2,4(1H,3H)-dione], the EC50 in assay [1] was 112 nM. Also, the IC50 in assay [2] worked out at 269 nM.
Take `O=C(c1ccc(F)c(Cn2c(=O)[nH]c(=O)c3c(F)cccc32)c1)N1CCN(C(=O)c2cccs2)CC1` [Example 156, 5-Fluoro-1-(6-fluoro-3-(4-(thiophene-2-carbonyl)piperazine-1-carbonyl)benzyl)quinazoline-2,4(1H,3H)-dione]: the concentration giving a half-maximal response (EC50) in assay [1] is 14 nM. For the same compound, the IC50 in assay [2] came to 28 nM.
As to `O=C(c1cc(Cn2c(=O)[nH]c(=O)c3c(F)cccc32)ccc1F)N1CCN(C(=O)C2CC2)CC1` [Example 163, 1-(3-(4-(Cyclopropylcarbonyl)piperazine-1-carbonyl)-4-fluorobenzyl)-5-fluoroquinazoline-2,4(1H,3H)-dione], the EC50 in assay [1] turned out to be 42 nM. Besides, the IC50 in assay [2] came out at 28 nM.
Take `O=C(c1cccc(Cn2c(=O)[nH]c(=O)c3ccccc32)c1)c1ccc2nncn2c1` [Example 198, 1-(3-([1,2,4]Triazolo[4,3-a]pyridine-6-carbonyl)benzyl)quinazoline-2,4(1H,3H)-dione]: in assay [1], the EC50 was above 10000 nM. Moreover, the IC50 in assay [2] is above 10000 nM.
For `O=C(c1cccc(Cn2c(=O)[nH]c(=O)c3ccccc32)c1)N1CCN(C(=O)c2ccco2)CC1` [Example 33, 1-(3-(4-(Furan-2-carbonyl)piperazine-1-carbonyl)benzyl)quinazoline-2,4(1H,3H)-dione], the half-maximal effective concentration (EC50) in assay [1] came out at 96 nM. The IC50 in assay [2] was 130 nM.
As for `O=C(c1ccc(Cn2c(=O)[nH]c(=O)c3ccccc32)cc1)N1CCN(C(=O)C2CCCC2)CC1` [Example 99, 1-(4-(4-(Cyclopentylcarbonyl)piperazine-1-carbonyl)benzyl)quinazoline-2,4(1H,3H)-dione], in assay [1], the concentration for a half-maximal effect (EC50) was above 10000 nM. In assay [2], the IC50 is above 10000 nM.
In the case of `O=C(c1cccc(Cn2c(=O)[nH]c(=O)c3ccccc32)c1)N1CCN(C(=O)c2cccs2)CC1` [Example 32, 1-(3-(4-(Thiophene-2-carbonyl)piperazine-1-carbonyl)benzyl)quinazoline-2,4(1H,3H)-dione], in assay [1], the EC50 came out at 96 nM. Besides, the IC50 in assay [2] stood at 106 nM.
Take `O=C(c1cccc(Cn2c(=O)[nH]c(=O)c3ccccc32)c1Cl)N1CCN(c2ncccn2)CC1` [Example 60, 1-(2-Chloro-3-(4-(pyrimidin-2-yl)piperazine-1-carbonyl)benzyl)quinazoline-2,4(1H,3H)-dione]: the EC50 in assay [1] is above 10000 nM. Further, the IC50 in assay [2] is above 10000 nM.
For the compound `O=C(c1ccc(F)c(Cn2c(=O)[nH]c(=O)c3cc(F)ccc32)c1)N1CCN(C(=O)C2CCC2)CC1` [Example 183, 1-(3-(4-(Cyclobutylcarbonyl)piperazine-1-carbonyl)-6-fluorobenzyl)-6-fluoroquinazoline-2,4(1H,3H)-dione], the EC50 in assay [1] turned out to be 6.1 nM. Besides, the IC50 in assay [2] came to 13 nM.
For the compound `O=C(c1ccco1)N1CCN(C(=O)c2cc(Cn3c(=O)[nH]c(=O)c4ccccc43)ccc2F)CC1` [Example 47, 1-(4-Fluoro-3-(4-(furan-2-carbonyl)piperazine-1-carbonyl)benzyl)quinazoline-2,4(1H,3H)-dione], in assay [1], the EC50 worked out at 2.6 nM. Moreover, in assay [2], the IC50 worked out at 54 nM.
Consider `O=C(c1cccc(Cn2c(=O)[nH]c(=O)c3cccc(Cl)c32)c1)N1CCN(c2ncccn2)CC1` [Example 224, 8-Chloro-1-(3-(4-(pyrimidin-2-yl)piperazine-1-carbonyl)benzyl)quinazoline-2,4(1H,3H)-dione], for which, in assay [1], the EC50 was determined as 274 nM. For the same compound, in assay [2], the IC50 amounted to 1110 nM.
With `O=C(c1ccccc1)N1CCN(C(=O)c2ccc(Cn3c(=O)[nH]c(=O)c4ccccc43)cc2)CC1` [Example 93, 1-(4-(4-Benzoylpiperazine-1-carbonyl)benzyl)quinazoline-2,4(1H,3H)-dione], the EC50 in assay [1] is above 10000 nM. For the same compound, the IC50 in assay [2] was above 10000 nM.
With `O=C(c1cccc(Cn2c(=O)[nH]c(=O)c3ccc(F)cc32)c1)N1CCN(C(=O)C2CCCC2)CC1` [Example 77, 1-(3-(4-(Cyclopentylcarbonyl)piperazine-1-carbonyl)benzyl)-7-fluoroquinazoline-2,4(1H,3H)-dione], the EC50 in assay [1] amounted to 5210 nM. For the same compound, the IC50 in assay [2] was determined as 2960 nM.
For `O=C(c1cc(Cn2c(=O)[nH]c(=O)c3cc(Cl)ccc32)ccc1F)N1CCN(C(=O)C2CC2)CC1` [Example 122, 6-Chloro-1-(3-(4-(cyclopropylcarbonyl)piperazine-1-carbonyl)-4-fluorobenzyl)quinazoline-2,4(1H,3H)-dione], the EC50 in assay [1] is 8.4 nM.
Consider `O=C(NC1CCCCC1)N1CCN(C(=O)c2cccc(Cn3c(=O)[nH]c(=O)c4ccccc43)c2)CC1` [Example 191, 1-(3-(4-(Cyclohexylcarbamoyl)piperazine-1-carbonyl)benzyl)quinazoline-2,4(1H,3H)-dione], for which, in assay [2], the IC50 is 192 nM.
